Measurements as given in PMC3731522, “Arginase II inhibitory activity of flavonoid compounds from Scutellaria indica” (Archives of Pharmacal Research, 2013).

Biological target: T1, Arginase II (Mus musculus, UniProt O08691)
T1 construct: Tissue lysates of kidney were prepared using lysis buffer; from tissue; host or cells: kidney of C57BL/6 mice
T1 sequence (O08691 23-354): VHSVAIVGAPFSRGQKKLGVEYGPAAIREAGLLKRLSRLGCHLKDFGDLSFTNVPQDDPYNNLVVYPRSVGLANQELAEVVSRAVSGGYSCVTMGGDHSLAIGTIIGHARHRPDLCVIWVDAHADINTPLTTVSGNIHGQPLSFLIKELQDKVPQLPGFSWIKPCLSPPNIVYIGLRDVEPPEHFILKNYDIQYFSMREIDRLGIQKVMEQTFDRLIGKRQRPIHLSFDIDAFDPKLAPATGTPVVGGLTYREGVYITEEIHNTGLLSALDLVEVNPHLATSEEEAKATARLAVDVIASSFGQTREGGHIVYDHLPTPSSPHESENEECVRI
Test: Arginase II inhibitory activity, enzyme solution from mouse kidney lysate, urea determined at 550 nm
Format: biochemical
Settings: kidney lysates of C57BL/6 mice; 50 % inhibition relative to vehicle control; average of three repeated experiments
Experimental: Arginase II solution was prepared from kidney lysates of anesthetized C57BL/6 mice (White et al. [2006]). Tissue lysates of kidney were prepared using lysis buffer (50 mM Tris–HCl, pH7.5, 0.1 mM EDTA and protease inhibitors) by homogenization at 4 °C followed by centrifugation for 20 min at 14,000×g at 4 °C. Briefly, […] lysates were added to Tris–HCl. The hydrolysis reaction of L-arginine by Arg was performed by incubating the mixture containing activated Arg and was stopped by adding acid solution. For calorimetric determination of urea, α-isonitrosopropiophenone was added, and the mixture was heated at 100 °C for 45 min. After placing the sample in the dark for 10 min at room temperature, the urea concentration was determined spectrophotometrically by the absorbance at 550 nm (White et al. [2006]).
An IC50 of over 200 µM was found for `O=c1cc(-c2ccc(O)cc2)oc2cc(O)cc(O)c12` [Compound 4, apigenin] in this work. An IC50 of over 200 µM was found for `COc1ccc([C@H]2C[C@H](OC)c3c(OC)c(OC)c(OC)c(OC)c3O2)cc1` [Compound 1, (2R,4S)-4,5,6,7,8,4′-hexamethoxylflavan] in this work. An IC50 of over 200 µM was found for `O=C1C[C@@H](c2ccc(O)cc2)Oc2cc(O)cc(O)c21` [Compound 6, naringenin] in this work. An IC50 of over 200 µM was found for `COc1c(O)cc(O)c2c(=O)cc(-c3ccccc3)oc12` [Compound 2, wogonin] in this work. An IC50 of over 200 µM was found for `COc1cc(O)c2c(c1OC)OC(c1cc(O)ccc1OC1OC(CO)C(O)C(O)C1O)CC2=O` [Compound 8, (2S)-5,5′-dihydroxy-7,8-dimethoxyflavanone-2′-O-β-D-glucopyranoside] in this work. An IC50 of 1 ± 0.1 µM was found for `OC[C@H]1O[C@@H](Oc2cc(/C=C/c3cc(O)cc(O)c3)ccc2O)[C@H](O)[C@@H](O)[C@@H]1O` [PG, piceatannol-3′-O-β-D-glucopyranoside, reference compound] in this work. An IC50 of over 200 µM was found for `O=C1C[C@@H](c2ccc(O)cc2)Oc2cc(O)cc(O[C@@H]3O[C@H](CO)[C@@H](O)[C@H](O)[C@H]3O)c21` [Compound 7, naringenin-5-O-β-D-glucopyranoside] in this work. An IC50 of 11.6 ± 1.2 µM was found for `COc1cc(O)c2c(c1OC)O[C@H](c1cc(O)ccc1O)CC2=O` [Compound 5, (2S)-5,2′,5′-trihydroxy-7,8-dimethoxyflavanone] in this work. An IC50 of 25.1 ± 2.6 µM was found for `COc1ccccc1[C@@H]1CC(=O)c2c(O)cc(O)c(OC)c2O1` [Compound 3, (2S)-5,7-dihydroxy-8,2′-dimethoxyflavanone] in this work.

System: not given
Test: not given
Settings: not given
A melting point of 218 to 220 °C was found for `COc1ccc([C@H]2C[C@H](OC)c3c(OC)c(OC)c(OC)c(OC)c3O2)cc1` [Compound 1, (2R,4S)-4,5,6,7,8,4′-hexamethoxylflavan] in this work.
